# Test results: patent publication US11174253B2, “Compound and pharmaceutical composition containing the same” (ALPHALA CO., LTD., priority 2017, dated 2021)
# Test system: hepatocellular carcinoma cell line Hep3B
# Test: Growth inhibition of Hep3B cells, 48 hr treatment, Hoechst 33342 nucleus count (GE InCell 2200)
# Assay type: cell-based
# Settings: Homo sapiens
# Experimental: The potency of selected compounds was defined by the growth inhibition ability to the hepatocellular carcinoma cell line Hep3B. The Hep3B cells were treated with selected compounds for 48 hr under 37° C., 5% CO2, and 95% relative humidity.
# The number of treated cells was determined by GE InCell 2200 system, and treated cells were stained with Hoechst 33342 which can reveal the remained nucleus in culture plate. The proportion of survival cells then were calculated with the ratio of treated/non-treated cells. The growth inhibition/cytotoxic effect of selected compounds were evaluated by the following protocol of NCI-60 screening platform. The human tumor cell lines are plating on a 96 well plate in a fixed density 24 hr prior compound treatment. Compounds with multiple concentrations are then added into each well for further 48 hr incubation. Cell viability is assessed by MTS method and the potency of compound is represented by GI50 and LC50 calculated by MTS result.
# Herein, the “Ratio in 10 μM (%)” in the following Tables 1-6 refers to the ratio of the number of tumor cells treated with 10 μM of selected compounds to the number of non-treated tumer cells.
# [1] = Table 5, ratio of number of tumor cells treated with 10 μM compound to non-treated cells
# [2] = Table 6, ratio of number of tumor cells treated with 10 μM compound to non-treated cells
SMILES,viability at 10 µM [1] [%],viability at 10 µM [2] [%]
"O=C(Nc1nc(-c2ccc(C(F)(F)F)cc2)c(Oc2ccccc2F)s1)c1ccc([N+](=O)[O-])s1 [Compound 5-83, N-(5-(2-fluorophenoxy)-4-(4-(trifluoromethyl)phenyl)thiazol-2-yl)-5-nitrothiophene-2-carboxamide]",36,
"O=C(Nc1nc(-c2ccc(OC(F)(F)F)cc2)c(Oc2ccccc2)s1)c1ccc([N+](=O)[O-])s1 [Compound 5-84, 5-nitro-N-(5-phenoxy-4-(4-(trifluoromethoxy)phenyl)thiazol-2-yl)thiophene-2-carboxamide]",34,
"CCCCOc1ccc(-c2nc(NC(=O)c3ccc([N+](=O)[O-])s3)sc2Oc2ccc(Br)cc2)cc1 [Compound 5-86, N-(5-(4-bromophenoxy)-4-(4-butoxyphenyl)thiazol-2-yl)-5-nitrothiophene-2-carboxamide]",24,
"CCCCOc1ccc(-c2nc(NC(=O)c3ccc([N+](=O)[O-])s3)sc2Oc2cc(C)c(Br)c(C)c2)cc1 [Compound 5-87, N-(5-(4-bromo-3,5-dimethylphenoxy)-4-(4-butoxyphenyl)thiazol-2-yl)-5-nitrothiophene-2-carboxamide]",36,
"CCCc1ccc(Oc2sc(NC(=O)c3ccc([N+](=O)[O-])s3)nc2-c2ccc(C(C)(C)C)cc2)cc1 [Compound 5-88, N-(4-(4-(tert-butyl)phenyl)-5-(4-propylphenoxy)thiazol-2-yl)-5-nitrothiophene-2-carboxamide]",36,
"CCCCc1ccc(Oc2sc(NC(=O)c3ccc([N+](=O)[O-])s3)nc2-c2ccc(C(C)(C)C)cc2)cc1 [Compound 5-89, N-(4-(4-(tert-butyl)phenyl)-5-(4-butylphenoxy)thiazol-2-yl)-5-nitrothiophene-2-carboxamide]",36,
"CCCCOc1ccc(-c2nc(NC(=O)c3ccc([N+](=O)[O-])s3)sc2Oc2ccc(C(C)(C)C)cc2)cc1 [Compound 5-90, N-(4-(4-butoxyphenyl)-5-(4-(tert-butyl)phenoxy)thiazol-2-yl)-5-nitrothiophene-2-carboxamide]",48,
"CCCCOc1ccc(-c2nc(NC(=O)c3ccc([N+](=O)[O-])s3)sc2Oc2ccc(C#N)cc2)cc1 [Compound 5-91, N-(4-(4-butoxyphenyl)-5-(4-cyanophenoxy)thiazol-2-yl)-5-nitrothiophene-2-carboxamide]",46,
"NCCCCCOc1ccc(-c2nc(NC(=O)c3ccc([N+](=O)[O-])s3)sc2Oc2ccccc2)cc1 [Compound 5-92, N-(4-(4-((5-aminopentyl)oxy)phenyl)-5-phenoxythiazol-2-yl)-5-nitrothiophene-2-carboxamide]",46,
"CCCCOc1ccc(-c2nc(NC(=O)c3ccc([N+](=O)[O-])s3)sc2Oc2ccc(CCC)cc2)cc1 [Compound 5-93, N-(4-(4-butoxyphenyl)-5-(4-propylphenoxy)thiazol-2-yl)-5-nitrothiophene-2-carboxamide]",45,
"CCCCc1ccc(-c2nc(NC(=O)c3ccc([N+](=O)[O-])s3)sc2Oc2ccc(F)cc2)cc1 [Compound 5-94, N-(4-(4-butylphenyl)-5-(4-fluorophenoxy)thiazol-2-yl)-5-nitrothiophene-2-carboxamide]",32,
"CCCOc1ccc(Oc2sc(NC(=O)c3ccc([N+](=O)[O-])s3)nc2-c2ccc(C(C)(C)C)cc2)cc1 [Compound 5-95, N-(4-(4-(tert-butyl)phenyl)-5-(4-propoxyphenoxy)thiazol-2-yl)-5-nitrothiophene-2-carboxamide]",38,
"CC(C)(C)c1ccc(Oc2sc(NC(=O)c3ccc([N+](=O)[O-])s3)nc2-c2ccc(C(C)(C)C)cc2)cc1 [Compound 5-96, N-(5-(4-(tert-butyl)phenoxy)-4-(4-(tert-butyl)phenyl)thiazol-2-yl)-5-nitrothiophene-2-carboxamide]",47,
"CCCCOc1ccc(-c2nc(NC(=O)c3ccc([N+](=O)[O-])s3)sc2Oc2ccc(C(C)(C)CC)cc2)cc1 [Compound 5-98, N-(4-(4-butoxyphenyl)-5-(4-(tert-pentyl)phenoxy)thiazol-2-yl)-5-nitrothiophene-2-carboxamide]",50,
"Cc1cc(Oc2sc(NC(=O)c3ccc([N+](=O)[O-])s3)nc2-c2ccc(C(C)(C)C)cc2)cc(C)c1Br [Compound 5-99, N-(5-(4-bromo-3,5-dimethylphenoxy)-4-(4-(tert-butyl)phenyl)thiazol-2-yl)-5-nitrothiophene-2-carboxamide]",40,
"Cc1cc(Oc2sc(NC(=O)c3ccc([N+](=O)[O-])s3)nc2-c2ccc(F)cc2)cc(C)c1Br [Compound 5-100, N-(5-(4-bromo-3,5-dimethylphenoxy)-4-(4-fluorophenyl)thiazol-2-yl)-5-nitrothiophene-2-carboxamide]",30,
"CCC(C)(C)c1ccc(Oc2sc(NC(=O)c3ccc([N+](=O)[O-])s3)nc2-c2ccc(C(C)(C)C)cc2)cc1 [Compound 5-101, N-(4-(4-(tert-butyl)phenyl)-5-(4-(tert-pentyl)phenoxy)thiazol-2-yl)-5-nitrothiophene-2-carboxamide]",48,

SMILES,viability at 10 µM [1] [%],viability at 10 µM [2] [%]
"CCc1ccc(-c2nc(NC(=O)c3ccc([N+](=O)[O-])s3)sc2Oc2ccc(C(C)(C)C)cc2)cc1 [Compound 5-102, N-(5-(4-(tert-butyl)phenoxy)-4-(4-ethylphenyl)thiazol-2-yl)-5-nitrothiophene-2-carboxamide]",40,
"CCc1ccc(-c2nc(NC(=O)c3ccc([N+](=O)[O-])s3)sc2Oc2ccc(C(C)(C)CC)cc2)cc1 [Compound 5-103, N-(4-(4-ethylphenyl)-5-(4-(tert-pentyl)phenoxy)thiazol-2-yl)-5-nitrothiophene-2-carboxamide]",33,
"CCCCc1ccc(-c2nc(NC(=O)c3ccc([N+](=O)[O-])s3)sc2Oc2ccc(C(C)(C)CC)cc2)cc1 [Compound 5-104, N-(4-(4-butylphenyl)-5-(4-(tert-pentyl)phenoxy)thiazol-2-yl)-5-nitrothiophene-2-carboxamide]",56,
"Cc1ccc(Oc2sc(NC(=O)c3ccc([N+](=O)[O-])s3)nc2-c2ccc(C(C)(C)C)cc2)cc1 [Compound 5-105, N-(4-(4-(tert-butyl)phenyl)-5-(p-tolyloxy)thiazol-2-yl)-5-nitrothiophene-2-carboxamide]",30,
"CCCCOc1ccc(-c2nc(NC(=O)c3ccc([N+](=O)[O-])s3)sc2Oc2cc(C)cc(C)c2)cc1 [Compound 5-106, N-(4-(4-butoxyphenyl)-5-(3,5-dimethylphenoxy)thiazol-2-yl)-5-nitrothiophene-2-carboxamide]",29,
"Cc1ccc(-c2nc(NC(=O)c3ccc([N+](=O)[O-])s3)sc2-c2cccc([N+](=O)[O-])c2)cc1 [Compound 6-3, 5-nitro-N-(5-(3-nitrophenyl)-4-(p-tolyl)thiazol-2-yl)thiophene-2-carboxamide]",,84
"COc1ccc(-c2sc(NC(=O)c3ccc([N+](=O)[O-])s3)nc2-c2ccc(C)cc2)cc1OC [Compound 6-4, N-(5-(3,4-dimethoxyphenyl)-4-(p-tolyl)thiazol-2-yl)-5-nitrothiophene-2-carboxamide]",,64
"Cc1ccc(-c2nc(NC(=O)c3ccc([N+](=O)[O-])s3)sc2-c2ccc(F)cc2)cc1 [Compound 6-6, N-(5-(4-fluorophenyl)-4-(p-tolyl)thiazol-2-yl)-5-nitrothiophene-2-carboxamide]",,48
"O=C(Nc1nc(-c2ccc(Br)cc2)cs1)c1ccc([N+](=O)[O-])s1 [Compound 6-7, N-(4-(4-bromophenyl)thiazol-2-yl)-5-nitrothiophene-2-carboxamide]",,81
"O=C(Nc1nc(-c2ccc(Br)cc2)c(-c2ccccc2)s1)c1ccc([N+](=O)[O-])s1 [Compound 6-9, N-(4-(4-bromophenyl)-5-phenylthiazol-2-yl)-5-nitrothiophene-2-carboxamide]",,71
"O=C(Nc1nc(-c2ccc(Br)cc2)c(Br)s1)c1ccc([N+](=O)[O-])s1 [Compound 6-10, N-(5-bromo-4-(4-bromophenyl)thiazol-2-yl)-5-nitrothiophene-2-carboxamide]",,50
"O=C(Nc1nc(-c2ccccc2[N+](=O)[O-])cs1)c1ccc([N+](=O)[O-])s1 [Compound 6-11, 5-nitro-N-(4-(2-nitrophenyl)thiazol-2-yl)thiophene-2-carboxamide]",,62
"O=C(Nc1nc(-c2ccccc2[N+](=O)[O-])c(Br)s1)c1ccc([N+](=O)[O-])s1 [Compound 6-12, N-(5-bromo-4-(2-nitrophenyl)thiazol-2-yl)-5-nitrothiophene-2-carboxamide]",,67
"O=C(Nc1nc(-c2cccc([N+](=O)[O-])c2)c(Br)s1)c1ccc([N+](=O)[O-])s1 [Compound 6-13, N-(5-bromo-4-(3-nitrophenyl)thiazol-2-yl)-5-nitrothiophene-2-carboxamide]",,81
"COc1cccc(-c2nc(NC(=O)c3ccc([N+](=O)[O-])s3)sc2Br)c1 [Compound 6-14, N-(5-bromo-4-(3-methoxyphenyl)thiazol-2-yl)-5-nitrothiophene-2-carboxamide]",,83
"CCOc1ccc(-c2nc(NC(=O)c3ccc([N+](=O)[O-])s3)sc2-c2ccc(F)cc2)cc1 [Compound 6-15, N-(4-(4-ethoxyphenyl)-5-(4-fluorophenyl)thiazol-2-yl)-5-nitrothiophene-2-carboxamide]",,64
